Each block holds one molecule with its values, some of them ahead of it.
What was measured:
[1] = system: MiaPaca-2 (expressing KRAS G12C mutant); experiment: Proliferation Assay (Cell Viability Assay); assay type: cell-based; settings: Homo sapiens, MIA PaCa-2; read-out: Proliferation in MiaPaca-2: IC50
Outline: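 MiaPaca-2 cells (KRAS G12C) were grown in DMEM-high glucose with 10% FBS, seeded at 2000–5000 cells/well and cultured overnight. Compounds were added at 10 μM final, or as serial dilutions for IC50, in 0.3% DMSO/10% FBS for 2–4 days at 37 °C, 5% CO2. Viability was measured with CellTiter 96 Aqueous One and % inhibition calculated.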

[2] = system: Smad2/Smad3 phosphorylation; experiment: Phospho-Smad2/3 Inhibition Assay (western blot), Panc-1; assay type: cell-based, human; settings: at 10 μM, Panc-1 pancreatic cancer cell line; starred symbols = activation
Outline: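 Panc-1 cells (KRas G12D), starved overnight in 0.5% FBS, treated 3 h at 37° C with compound at 10 μM final (0.3% DMSO) or serial dilutions for IC50, then stimulated with 10 ng/ml TGF-b1 for 1 h. Phospho-Smad2 (Ser465/467) and phospho-Smad3 (Ser423/425) detected by western blot.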

SMILES: COc1ccnc(Nc2nc(-c3nccn3C)nn3cc(-c4cnn(C(C)C)c4)c(C)c23)c1 [Compound 165, 6-(1-Isopropyl-1H-pyrazol-4-yl)-N-(4-methoxypyridin-2-yl)-5-methyl-2-(1-methyl-1H-imidazol-2-yl)pyrrolo[2,1-f][1,2,4]triazin-4-amine]
IC50 [1]: < 150 nM
% inh of Smad2/3 phosphorylation in Panc-1 [2]: B* (B* = 26-45% activation)

SMILES: COc1ccnc(Nc2nc(-c3nccn3C)nn3cc(-c4cccnc4)c(-c4ccccn4)c23)c1 [Compound 166, N-(4-Methoxypyridin-2-yl)-2-(1-methyl-1H-imidazol-2-yl)-5-(pyridin-2-yl)-6-(pyridin-3-yl)pyrrolo[2,1-f][1,2,4]triazin-4-amine]
IC50 [1]: > 1000 nM
% inh of Smad2/3 phosphorylation in Panc-1 [2]: C* (C* = 46-75% activation)

SMILES: COc1cc(Nc2nc(-c3nccn3C)nn3cc(-c4cccnc4)c(-c4ccccn4)c23)ncn1 [Compound 167, N-(6-Methoxypyrimidin-4-yl)-2-(1-methyl-1H-imidazol-2-yl)-5-(pyridin-2-yl)-6-(pyridin-3-yl)pyrrolo[2,1-f][1,2,4]triazin-4-amine]
IC50 [1]: > 1000 nM
% inh of Smad2/3 phosphorylation in Panc-1 [2]: 0 (0 = 0% inhibition)

More lines, main results first:

IC50 [1]: > 1000 nM
SMILES: CO[C@H]1C[C@H](Nc2nc(-c3nccn3C)nn3cc(-c4cccnc4)c(-c4ccccn4)c23)C1 [Compound 168, N-((1r,3r)-3-Methoxycyclobutyl)-2-(1-methyl-1H-imidazol-2-yl)-5-(pyridin-2-yl)-6-(pyridin-3-yl)pyrrolo[2,1-f][1,2,4]triazin-4-amine]
% inh of Smad2/3 phosphorylation in Panc-1 [2]: A* (A* = 1-25% activation)

IC50 [1]: < 150 nM
SMILES: COc1ccnc(Nc2nc(-c3nccn3C)nn3cc(-c4cccnc4)c(-c4cccnc4)c23)c1 [Compound 169, N-(4-methoxypyridin-2-yl)-2-(1-methyl-1H-imidazol-2-yl)-5,6-di(pyridin-3-yl)pyrrolo[2,1-f][1,2,4]triazin-4-amine]
% inh of Smad2/3 phosphorylation in Panc-1 [2]: C (C = 46-75% inhibition)

Reference: patent US12459951B2, “Compounds that interact with RAS superfamily proteins for treatment of cancers, inflammatory diseases, rasopathies, and fibrotic disease” (SHY Therapeutics, LLC, priority 2022, dated 2025)
